Laboratory results: ChEMBL document CHEMBL1201862, “PubChem BioAssay data set” (2004)
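Values below derive from 48-hour exposures of cells grown in 96-well plates, with endpoints linearly interpolated between the two concentrations bracketing the appropriate inhibition level. GI50 marks 50% less growth.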 Activity calls are given as the source filed them. Rule as the data show it: active = GI50 up to about 1.1 µM and inactive = higher.

What was measured:
Assay in all cases: NCI-60 cell line screen, 48 h
OVCAR-5 = test system: OVCAR-5
K562 = test system: K562
OVCAR-4 = test system: OVCAR-4
MCF7 = test system: MCF7
U-251 = test system: U-251
HCT-15 = test system: HCT-15
HCT-116 = test system: HCT-116
MDA-MB-435 = test system: MDA-MB-435
SNB-75 = test system: SNB-75
Malme-3M = test system: Malme-3M
EKVX = test system: EKVX
A498 = test system: A498
Hs-578T = test system: Hs-578T
A549 = test system: A549
SF-268 = test system: SF-268
SN12C = test system: SN12C
CCRF-CEM = test system: CCRF-CEM
LOX IMVI = test system: LOX IMVI
SF-539 = test system: SF-539

Row | SMILES | GI50 (OVCAR-5) | GI50 (K562) | GI50 (OVCAR-4) | GI50 (MCF7) | GI50 (U-251) | GI50 (HCT-15) [µM] | GI50 (HCT-116) | GI50 (MDA-MB-435) | GI50 (SNB-75) | GI50 (Malme-3M) | GI50 (EKVX) | GI50 (A498) | GI50 (Hs-578T) | GI50 (A549) | GI50 (SF-268) | GI50 (SN12C) | GI50 (CCRF-CEM) | GI50 (LOX IMVI) | GI50 (SF-539)
1 | C/C(=C\c1ccccn1)c1ccccn1 | > 100 µM (inactive) | > 100 µM (inactive) | > 100 µM (inactive) | > 100 µM (inactive) | > 100 µM (inactive) | > 100 | > 100 µM (inactive) | > 100 µM (inactive) | > 100 µM (inactive) | > 100 µM (inactive) | > 100 µM (inactive) | > 100 µM (inactive) | > 100 µM (inactive) | > 100 µM (inactive) | > 100 µM (inactive) | – | – | – | –
2 | C[C@@H](NC(=O)[C@@H]1C[C@]1(C)CO)c1cccc2ccccc12 | > 100 µM (inactive) | > 100 µM (inactive) | > 100 µM (inactive) | > 100 µM (inactive) | > 100 µM (inactive) | > 100 | > 100 µM (inactive) | > 100 µM (inactive) | > 100 µM (inactive) | > 100 µM (inactive) | > 100 µM (inactive) | > 100 µM (inactive) | > 100 µM (inactive) | > 100 µM (inactive) | > 100 µM (inactive) | > 100 µM (inactive) | > 100 µM (inactive) | – | –
3 | CN(C)c1nc(NN)c2c(-c3ccccc3)c(-c3ccccc3)oc2n1 | > 100 µM (inactive) | 49 µM (inactive) | 35.1 µM (inactive) | > 100 µM (inactive) | > 100 µM (inactive) | > 100 | > 100 µM (inactive) | > 100 µM (inactive) | 96.8 µM (inactive) | – | > 100 µM (inactive) | > 100 µM (inactive) | 45.8 µM (inactive) | > 100 µM (inactive) | 89.1 µM (inactive) | > 100 µM (inactive) | 52.5 µM (inactive) | > 100 µM (inactive) | > 100 µM (inactive)
4 | COc1cc(C2c3cc4c(cc3OC(C)(O)C2C)OCO4)cc(OC)c1OC (stereo not given) | > 100 µM (inactive) | 0.274 µM (active) | – | 0.375 µM (active) | 0.443 µM (active) | 0.4 | 0.333 µM (active) | 0.118 µM (active) | – | 0.407 µM (active) | 28.6 µM (inactive) | 13.9 µM (inactive) | 0.449 µM (active) | 0.197 µM (active) | 2.69 µM (inactive) | 0.505 µM (active) | 0.406 µM (active) | 0.692 µM (active) | 0.277 µM (active)
5 | COc1ccc(OC)c2sc(N3C(=O)/C(=C/Cc4ccco4)N=C3c3ccccc3)nc12 | > 100 µM (inactive) | 29.9 µM (inactive) | 32 µM (inactive) | 17.7 µM (inactive) | 22.5 µM (inactive) | 42.7 | 27.3 µM (inactive) | 19.4 µM (inactive) | 24.7 µM (inactive) | – | 66.8 µM (inactive) | 66.2 µM (inactive) | 42.2 µM (inactive) | 34.7 µM (inactive) | 34 µM (inactive) | 33.3 µM (inactive) | 11.7 µM (inactive) | 25.1 µM (inactive) | 53.5 µM (inactive)
6 | CN1c2ccccc2S(=O)(=O)n2c(COc3ccccc3)nnc21 | > 100 µM (inactive) | > 100 µM (inactive) | > 100 µM (inactive) | > 100 µM (inactive) | > 100 µM (inactive) | > 100 | > 100 µM (inactive) | > 100 µM (inactive) | – | – | > 100 µM (inactive) | 57.8 µM (inactive) | > 100 µM (inactive) | > 100 µM (inactive) | > 100 µM (inactive) | > 100 µM (inactive) | > 100 µM (inactive) | > 100 µM (inactive) | 62.8 µM (inactive)
7 | CC1=CC(C)(C)NN1C1=NS(=O)(=O)c2ccccc2N1C | > 100 µM (inactive) | > 100 µM (inactive) | 44.3 µM (inactive) | > 100 µM (inactive) | > 100 µM (inactive) | 89.9 | > 100 µM (inactive) | > 100 µM (inactive) | – | – | > 100 µM (inactive) | > 100 µM (inactive) | > 100 µM (inactive) | > 100 µM (inactive) | > 100 µM (inactive) | > 100 µM (inactive) | 98.9 µM (inactive) | > 100 µM (inactive) | > 100 µM (inactive)
8 | [N-]=[N+]=NI1OC(C(F)(F)F)(C(F)(F)F)c2ccccc21 | 15.1 µM (inactive) | 11.5 µM (inactive) | 15.1 µM (inactive) | 12.9 µM (inactive) | 18.1 µM (inactive) | 8.18 | 17.3 µM (inactive) | 17.5 µM (inactive) | 13.5 µM (inactive) | – | 16.9 µM (inactive) | 17 µM (inactive) | 12.6 µM (inactive) | 14.9 µM (inactive) | 13.6 µM (inactive) | 14.6 µM (inactive) | 7.85 µM (inactive) | 15.2 µM (inactive) | 16.5 µM (inactive)
9 | Nc1ncnc2c1ncn2[C@@H]1C[C@H]1CO | > 100 µM (inactive) | > 100 µM (inactive) | – | > 100 µM (inactive) | > 100 µM (inactive) | > 100 | > 100 µM (inactive) | > 10 µM (inactive) | – | > 100 µM (inactive) | > 100 µM (inactive) | > 100 µM (inactive) | > 100 µM (inactive) | > 100 µM (inactive) | – | > 100 µM (inactive) | > 100 µM (inactive) | > 100 µM (inactive) | > 100 µM (inactive)
10 | COC(=O)/C(=C(\C)NC(C)=O)c1c(C(=O)OC)[nH]c2ccccc12 | > 100 µM (inactive) | > 100 µM (inactive) | > 100 µM (inactive) | > 100 µM (inactive) | > 100 µM (inactive) | > 100 | > 100 µM (inactive) | > 100 µM (inactive) | – | > 100 µM (inactive) | > 100 µM (inactive) | > 100 µM (inactive) | > 100 µM (inactive) | > 100 µM (inactive) | > 100 µM (inactive) | > 100 µM (inactive) | > 100 µM (inactive) | > 100 µM (inactive) | > 100 µM (inactive)
11 | COC(=O)c1ccccc1C#CC#Cc1ccccc1C(=O)OC | > 10 µM (inactive) | 8.57 µM (inactive) | 2.9 µM (inactive) | 0.611 µM (active) | > 10 µM (inactive) | 7.35 | > 10 µM (inactive) | > 10 µM (inactive) | – | 6.79 µM (inactive) | > 10 µM (inactive) | > 10 µM (inactive) | > 10 µM (inactive) | > 10 µM (inactive) | > 10 µM (inactive) | > 10 µM (inactive) | > 10 µM (inactive) | 7 µM (inactive) | > 10 µM (inactive)
12 | O=C1/C(=C/c2cc3c(=O)c4ccccc4sc3s2)NC(=S)N1c1ccccc1 | > 100 µM (inactive) | 40.6 µM (inactive) | > 100 µM (inactive) | > 100 µM (inactive) | 21 µM (inactive) | > 100 | 40.4 µM (inactive) | > 100 µM (inactive) | 5.11 µM (inactive) | > 100 µM (inactive) | 48.3 µM (inactive) | > 100 µM (inactive) | > 100 µM (inactive) | – | 55 µM (inactive) | > 100 µM (inactive) | – | > 100 µM (inactive) | –
